According to patent US20250280816A1, “INSECT TRAP” (Scotts Canada Ltd., priority 2017, published 2025):

Tests used:
Format in all cases: in vivo, Cimex lectularius
[1] = tested on: bed bugs (C. lectularius); test: three-dish, dual-choice olfactometer bioassay; conditions: Exp. 23-37; nymphs; amounts in micrograms in parentheses of the bait
Source text: Bioassays were run in dual-choice olfactometers and in large Plexiglass arenas (FIG. 19). Dual-choice olfactometers consisted of two lateral Pyrex® glass Petri dishes, connected to a central dish (all dishes 3×9 cm inner diameter) via a Pyrex® glass tube (2.5 cm long×2 cm inner diameter). The dishes in this olfactometer mimic the natural still-air shelters in which bed bugs spend the day. Prior to the start of bioassays, a disc of paper toweling (9 cm diameter) was placed into each dish and a strip of paper toweling (2.4×0.6 cm) was inserted into the connecting glass tubing to provide traction for walking bed bugs. In addition, a piece of filter paper (2×3 cm; Whatman) was placed into each lateral dish and covered with a piece of cardboard (2×2 cm) as a refuge for bioassay insects.
Treatment and control stimuli were randomly assigned to each lateral dish. Olfactometers were enclosed in opaque plastic bins to prevent light from entering and affecting the insects' responses. For each replicate, a single 3rd, 4th, or 5th instar C. lectularius nymph was released into the central chamber of the olfactometer, which was then covered with a glass plate to prevent escape. The single bed bug in each olfactometer was then allowed to explore all chambers. Each insect was released into an olfactometer at the end of the 14-h photophase allowing it to explore the chambers during 10 h of darkness, and to come to rest in one of the shelters during 10 h of light. After this 20-h period, the insect's position within the olfactometer was recorded. Any insects not found in a lateral chamber were recorded as non-responders. All experimental replicates were run at 24±2° C. and 30-60% RH. Olfactometers were washed with Sparkleen detergent (Fisher Scientific Co, Pittsburgh, PA, USA), and were oven-dried (Precision, Winchester, VA, USA) between each bioassay.

bed bugs [2] = test: large Plexiglass arena bioassay with baited shelters; conditions: adult males
Source text: The large two-chamber Plexiglass arena (180 cm long×12 cm high×13 cm wide) was designed with a central divider (180 cm long×5.5 cm high) to accommodate two pieces of wood (162 cm long×3.8 cm wide×0.8 cm high), each piece for testing the response of a single bed bug to a pheromone-baited shelter or a control shelter (see insert in FIG. 19) which were randomly assigned to either end of the wood. […] For each replicate, a single bed bug was placed in the center of the wood piece just prior to the end of the 14-h photophase, and its position was scored the next morning after the onset of the photophase.
Experiments 68-75 also investigated the effect of the volatile pheromone components (VPCs) (E)-2-hexenal, (E)-2-octenal, dimethyl disulfide, dimethyl trisulfide and 2-hexanone, and the effect of the less-volatile pheromone component histamine (H), on attraction and arrestment of bed bugs. Treatment stimuli consisted of filter paper (4×2.2 cm) impregnated with H (2,000 μg) and covered with a piece of corrugated cardboard shelter (3×2.2 cm), and of VPCs formulated at a high dose (500 μg; Experiments 68-74) or a medium dose (50 μg; Exp. 75) in mineral oil (0.5 mL) and pipetted into the inverted lid of a 20-ml scintillation vial resting on top of the shelter (FIG. 19). Control stimuli were of identical design but the filter paper contained no H, and the mineral oil contained no VPCs.

bed bugs [3] = test: pheromone-baited shelter traps in a heavily infested residential apartment (Room 106); conditions: Exp. 76-79, 24-h periods; for Mean ± SE number insects in baited shelter: VPCs total 500 μg, histamine 2,000 μg, nymphal and adult bed bugs; for Mean (±SE) number insects in control shelter: unbaited control shelter paired with the baited shelter
Source text: To determine whether bed bugs responded to synthetic pheromone lures not only in large arena laboratory bioassays but also in infested premises (residential apartments), we placed pheromone-baited shelter traps (see FIG. 19) in apartments with known or suspected bed bug infestations. […] Based on 24-hour trapping results in multiple apartments, we selected a single, heavily infested apartment (hereafter referred to as Room 106) for further testing of synthetic bed bug pheromone lures.
Replicates (n=15-20) of each experiment consisted of paired shelters placed against a wall or furniture, with approximately 30-cm spacing between paired shelters and >1 m spacing between shelter pairs. For each shelter pair within each experiment, pheromone and control treatments were randomly assigned, and placement of replicates was alternated between the two experiments of Set 1 and Set 2. Because not more than 10 shelter pairs could be accommodated in Room 106 at any time, experimental data were collected over several consecutive 24-h periods. Every morning at 9:00, shelters were collected from Room 106 and immediately placed into separate labelled zipper lock bags which were then put on dry ice to kill the bed bugs that had entered a shelter. Bed bugs in each shelter were later counted in the laboratory under a microscope, noting their developmental stage (1st, 2nd, 3rd, or 4th instar, adult), sex (male, female), and evidence (or not) for blood feeding prior to entry into a shelter. Immediately following the removal of bed bug shelters from Room 106 each morning, new pre-prepared shelters were pheromone-baited (treatment) or not (control) and their position within shelter pairs randomly assigned (see above), again alternating placement of shelter pairs between Experiments 76 and 77 (Set 1) and between Experiments 78 and 79 (Set 2).

SMILES: NCCc1c[nH]cn1 [H, histamine]
- No. insects in bait chamber [1]: 35
- No. insects in control chamber [1]: 10
- No. insects not responding [1]: 3
- No. insects in shelter 1 (bed bugs [2]; Exp. 68-71, 73, baited shelter 1 vs unbaited shelter 2, VPCs 500 μg, histamine 2,000 μg): 12
- No. insects not responding (bed bugs [2]; Exp. 68-71, 73, baited shelter 1 vs unbaited shelter 2): 5
- No. insects in shelter 2 (bed bugs [2]; Exp. 68-71, 73, unbaited shelter 2 paired with the baited shelter 1): 1
- No. insects in shelter 2 (bed bugs [2]; Exp. 68-71, 73, unbaited shelter 2 paired with the baited shelter 1, listed as histamine): one
- No. insects in shelter 2 (bed bugs [2]; Exp. 72, shelter 2 H (2,000 μg) vs shelter 1 VPC (500 μg)): 14
- No. insects in shelter 2 (bed bugs [2]; Exp. 74, shelter 2 H (2,000 μg) vs shelter 1 VPC (500 μg) + H): 5
- No. insects in shelter 2 (bed bugs [2]; Exp. 75, shelter 2 H (2,000 μg) vs shelter 1 VPC (50 μg) + H): 0
- Mean ± SE number insects in baited shelter (bed bugs [3]): 6.06 ± 1.28
- Mean ± SE number insects in baited shelter (bed bugs [3]; listed as histamine): 6.06
- Mean (±SE) number insects in control shelter (bed bugs [3]): 4.53 ± 1.8
- Mean (±SE) number insects in control shelter (bed bugs [3]; listed as histamine): 4.53
